The source of these data is ChEMBL document CHEMBL5512666, “Selenization of Small Molecule Drugs: A New Player on the Board” (J Med Chem, 2024).

Converted amounts (≈) assume the structure as drawn.

One data set relates to HEK-293T. As to the kind of experiment: Antiproliferative activity against HEK293T. The class given is functional, cell-based. Conditions: Homo sapiens.
A short description of data set [1]: Antiproliferative activity against human HEY A8 cells. The class given is functional, cell-based.
The test system of another data set is ES-2. As to the kind of experiment: Antiproliferative activity against human ES2 cells. The class given is functional, cell-based.
A further data set concerns OVCAR-3. As to the kind of experiment: Antiproliferative activity against human OVCAR-3 cells. The class given is functional, cell-based.
The nature of data set [2]: Antiproliferative activity against human OVCAR-10 cells. The data set is classed as functional, cell-based.
The test system of a further data set is MHCC97H. As to the kind of experiment: Antiproliferative activity against human MHCC97H cells assessed as reduction in cell viability incubated for 48 hrs by MTT assay. The data set is classed as functional, cell-based. On the technique in general: Formazan colour is commonly taken as a measure of viable cells.
Data set [3] in a line: Inhibition of TrxR (unknown origin) expressed in MHCC97H cells incubated for 24 hrs by colorimetric assay. The class given is cell-based, Homo sapiens.
A further data set has as its system Human alphaherpesvirus 3. Put plainly: Antiviral activity against VZV infected in African green monkey Vero cells assessed as reduction in virus-induced cytopathic effect incubated for 3 days by MTT assay. The class given is functional, organism-based. Conditions: Human alphaherpesvirus 3, Vero, 72 h. On the technique in general: Protection from cytopathic effect is a common read-out in antiviral testing.

For a further data set, the system named is Human alphaherpesvirus 2. As to the kind of experiment: Antiviral activity against HSV-2 infected in African green monkey Vero cells assessed as reduction in virus-induced cytopathic effect incubated for 3 days by MTT assay. The data set is classed as functional, organism-based. Conditions: Human alphaherpesvirus 2, Vero, 72 h.
A further data set relates to Human betaherpesvirus 5. Put plainly: Antiviral activity against […] infected in African green monkey Vero cells assessed as reduction in virus-induced cytopathic effect incubated for 3 days by MTT assay. Conditions: Human betaherpesvirus 5, Vero, 72 h. The data set is classed as functional, organism-based.
A further data set concerns Human alphaherpesvirus 1. Put plainly: Antiviral activity against HSV-1 infected in African green monkey Vero cells assessed as reduction in virus-induced cytopathic effect incubated for 3 days by MTT assay. The class given is functional, organism-based. Conditions: Human alphaherpesvirus 1, Vero, 72 h.
The next data set has as its system Aspergillus fumigatus. As to the kind of experiment: Antifungal activity against Aspergillus fumigatus CGMCC 3.7795. The class given is functional.
For data set [4], the system named is Candida albicans. As to the kind of experiment: Antifungal activity against Candida albicans SC5314. The class given is functional.
The subject of another data set is Pichia kudriavzevii. Put plainly: Antifungal activity against Candida krusei AS 2.1045. The data set is classed as functional.
Data set [5] concerns Candida albicans. Put plainly: Antifungal activity against azole-resistant Candida albicans clinical isolate 901 assessed as fungal growth inhibition incubated for 24 hrs by CLSI protocol based broth microdilution method. The data set is classed as functional. On the technique in general: Dilution methods test growth across graded concentrations, often in twofold steps.
Data set [6] deals with Candida albicans. Put plainly: Antifungal activity against azole-resistant Candida albicans clinical isolate 904 assessed as fungal growth inhibition incubated for 24 hrs by CLSI protocol based broth microdilution method. The data set is classed as functional.
Data set [7] relates to Candida albicans. Put plainly: Antifungal activity against azole-resistant Candida albicans clinical isolate CaR assessed as fungal growth inhibition incubated for 24 hrs by CLSI protocol based broth microdilution method. The data set is classed as functional.
For data set [8], the system named is Candida albicans. As to the kind of experiment: Antifungal activity against azole-resistant Candida albicans clinical isolate 17 assessed as fungal growth inhibition incubated for 24 hrs by CLSI protocol based broth microdilution method. The data set is classed as functional.
The subject of the next data set is Candida parapsilosis. As to the kind of experiment: Antifungal activity against Candida parapsilosis 22019. The class given is functional. Conditions: Lodderomyces parapsilosis.
In a further data set the test system is Candida tropicalis. Put plainly: Antifungal activity against Candida tropicalis CGMCC 2.3739. The class given is functional.
Data set [9] deals with Candida albicans. As to the kind of experiment: Antifungal activity against azole-resistant Candida albicans clinical isolate 632 assessed as fungal growth inhibition incubated for 24 hrs by CLSI protocol based broth microdilution method. The data set is classed as functional.
In the next data set the test system is Cryptococcus neoformans. As to the kind of experiment: Antifungal activity against Cryptococcus neoformans CGMCC 2.3161. The class given is functional.
Data set [10] has as its system Candida albicans. Put plainly: Antifungal activity against Candida albicans CPCC 400616. The data set is classed as functional.
A further data set concerns Nakaseomyces glabratus. As to the kind of experiment: Antifungal activity against Candida glabrata. The class given is functional.
Data set [11] can be described thus: Antioxidant activity assessed as reduction in peroxynitrite mediated L-tyrosine nitration by measuring remaining activity relative to control. The data set is classed as functional. Also on record: concentration or dose not given beside the values.
A short description of data set [12]: Cytotoxicity against human A549 cells assessed as reduction in cell viability incubated for 96 hrs by MTT assay. The class given is toxicity, cell-based.
Data set [13] is described as follows: Cytotoxicity against human MDA-MB-231 cells assessed as reduction in cell viability incubated for 96 hrs by MTT assay. The data set is classed as toxicity, cell-based.
The nature of data set [14]: Cytotoxicity against human SGC cells assessed as reduction in cell viability incubated for 96 hrs by MTT assay. The class given is toxicity, cell-based.
Data set [15] can be described thus: Antioxidant activity assessed as inhibition of peroxynitrite mediated L-tyrosine nitration in sodium phosphate buffer at pH 7.5 incubated for 7 mins by RP-HPLC analysis. The data set is classed as functional.

With `O=c1[nH]cc(F)c(=O)[nH]1` [FLUOROURACIL], the IC50 with HEK-293T amounted to 56.2 µM; in data set [1] it was 48.4 µM; in the data set on ES-2 it was 25.9 µM; in the data set with OVCAR-3, 18.9 µM; in [2], 26.4 µM.

On to `N#Cc1cccc(-c2ccc(=O)n(Cc3cccc(-c4ncc([Se]CCN5CCCC5)cn4)c3)n2)c1`, for which the IC50 with MHCC97H came to 0.063 µM; in data set [3], 0.8 µM.

On to `CC[Se]C(=O)CCCC[C@@H]1SC[C@@H]2NC(=O)N[C@@H]21`, for which the IC50 with HEK-293T was determined as 38.8 µM; in data set [1], 12.8 µM; with ES-2 it was 14.5 µM; in the data set with OVCAR-3, 34.2 µM; in data set [2], 40.4 µM.

In the case of `NC1=Nc2c(ncn2C[Se]C(CO)CO)C(N)N1` (stereo unspecified), the EC50 with Human alphaherpesvirus 3 was more than 100 µM; with Human alphaherpesvirus 2, more than 100 µM; with Human betaherpesvirus 5 it was 34.3 µM; in the data set on Human alphaherpesvirus 1, more than 100 µM.

Take `CCC(C)n1ncn(-c2ccc(N3CCN(c4ccc(OCC5COC(Cn6cncn6)(c6ccc(Cl)cc6Cl)O5)cc4)CC3)cc2)c1=O` (stereo unspecified) [ITRACONAZOLE]: the minimal inhibitory concentration (MIC) with Aspergillus fumigatus was 2 µg/mL (≈ 2.83 µM); against Candida albicans [4] it was 0.03 µg/mL (≈ 0.0425 µM); in the data set with Pichia kudriavzevii, 0.06 µg/mL (≈ 0.085 µM); in the data set on Candida albicans [5], more than 128 µg/mL; in the data set with Candida albicans [6] it was more than 128 µg/mL; with Candida albicans [7] it was 8 µg/mL (≈ 11.3 µM). Besides, the MIC is more than 128 µg/mL with Candida albicans [8]; 0.25 µg/mL (≈ 0.354 µM) against Candida parapsilosis; 0.5 µg/mL (≈ 0.709 µM) with Candida tropicalis; more than 128 µg/mL in the data set with Candida albicans [9]; 0.5 µg/mL (≈ 0.709 µM) against Cryptococcus neoformans; 0.25 µg/mL (≈ 0.354 µM) with Candida albicans [10]. Besides, it took 0.5 µg/mL (≈ 0.709 µM) to inhibit growth in the data set with Nakaseomyces glabratus (MIC).

For `CN(C)CC[Se]c1cnc(-c2cccc(Cn3nc(-c4cccc(C#N)c4)ccc3=O)c2)nc1`, the IC50 was 0.027 µM in the data set on MHCC97H and 0.421 µM in data set [3].

For the compound `C=Cn1ccn(C)c1=[Se]`, the Activity in data set [11] stood at 71%.

For the compound `Clc1ccc(-c2nn[se]c2-n2cncn2)c(Cl)c1`, the MIC in the data set with Candida albicans [5] came to 8 µg/mL (≈ 23.2 µM); in the data set on Candida albicans [6] it was 32 µg/mL (≈ 92.7 µM); in the data set with Candida albicans [7], 4 µg/mL (≈ 11.6 µM); with Candida albicans [8] it was 4 µg/mL (≈ 11.6 µM); in the data set on Candida albicans [9] it was 16 µg/mL (≈ 46.4 µM). The IC50 at 96 h in [12] was found to be 16.9 µg/mL (≈ 49.1 µM); in [13] it was 23.5 µg/mL (≈ 68.1 µM); in data set [14], 19.5 µg/mL (≈ 56.5 µM).

For the compound `N#C[Se]CCOC(=O)CCCC[C@@H]1SC[C@@H]2NC(=O)N[C@@H]21`, the IC50 in the data set on HEK-293T was determined as 77.2 µM; in [1], 14.1 µM; in the data set with ES-2 it was 9.85 µM; in the data set on OVCAR-3, 11.8 µM; in [2] it was 18.6 µM.

Take `N#Cc1cccc(-c2ccc(=O)n(Cc3cccc(-c4ncc([Se]CCCN5CCOCC5)cn4)c3)n2)c1`: the IC50 came to 0.029 µM in the data set on MHCC97H and 0.117 µM in data set [3].

With `CN1C=CN(CCn2ccn(C)c2=[Se])C1`, in data set [11], the Activity came to 68.4%.

As for `CNC1NC(N)=Nc2c1ncn2C[Se]CCO` (stereo unspecified), the EC50 in the data set with Human alphaherpesvirus 3 was more than 100 µM; in the data set on Human alphaherpesvirus 2, 17.6 µM; with Human betaherpesvirus 5, more than 100 µM; in the data set on Human alphaherpesvirus 1 it was 14.3 µM.

In the case of `NC1=Nc2c(ncn2C[Se]CCO)C(N)N1` (stereo unspecified), the 50% effective concentration (EC50) is more than 100 µM with Human alphaherpesvirus 3, 32.2 µM in the data set on Human alphaherpesvirus 2, more than 100 µM with Human betaherpesvirus 5 and 15.4 µM with Human alphaherpesvirus 1.

`Cc1cccc(C)c1[Se]C(Cn1ccnc1)c1ccc(F)cc1` (stereo unspecified): the MIC is 2 µg/mL (≈ 5.36 µM) with Aspergillus fumigatus; 0.03 µg/mL (≈ 0.0804 µM) in the data set with Candida albicans [4]; 0.06 µg/mL (≈ 0.161 µM) with Pichia kudriavzevii; 0.13 µg/mL (≈ 0.348 µM) against Candida parapsilosis; 0.06 µg/mL (≈ 0.161 µM) against Candida tropicalis; 0.13 µg/mL (≈ 0.348 µM) against Cryptococcus neoformans. The MIC against Candida albicans [10] was 0.03 µg/mL (≈ 0.0804 µM); with Nakaseomyces glabratus, 0.25 µg/mL (≈ 0.67 µM).

As to `COc1cccc(Cn2ccn(Cc3cccc(OC)c3)c2=[Se])c1`, the Activity in data set [11] turned out to be 82%. Besides, in data set [15], the IC50 is 42.2 µM.

On to `CNC1NC(N)=Nc2c1ncn2C[Se]C(CO)CO` (stereo unspecified), for which the EC50 with Human alphaherpesvirus 3 is more than 100 µM; in the data set with Human alphaherpesvirus 2, more than 100 µM; in the data set on Human betaherpesvirus 5, 32.1 µM; in the data set with Human alphaherpesvirus 1, more than 100 µM.

With `NC1=Nc2c(ncn2C[Se]C(CO)CO)C(NC2CC2)N1` (stereo unspecified), the EC50 in the data set with Human alphaherpesvirus 3 was more than 100 µM; in the data set on Human alphaherpesvirus 2, more than 100 µM; in the data set on Human betaherpesvirus 5 it was 41.1 µM; with Human alphaherpesvirus 1, more than 100 µM.

For the compound `OC(Cn1cncn1)(Cn1cncn1)c1ccc(F)cc1F` [FLUCONAZOLE], the MIC was more than 128 µg/mL in the data set with Candida albicans [5]; more than 128 µg/mL in the data set on Candida albicans [6]; more than 128 µg/mL in the data set on Candida albicans [7]; more than 128 µg/mL in the data set with Candida albicans [8]; 2 µg/mL (≈ 6.53 µM) in the data set with Candida tropicalis; more than 128 µg/mL in the data set on Candida albicans [9].

With `Cc1cc(=O)[nH]c(=S)[nH]1` [METHYLTHIOURACIL], the IC50 in [15] came out at 66.7 µM.

Broadly, the IC50 is the point on the concentration scale where inhibition reaches its midpoint. For orientation: EC50 means the concentration needed to bring the measured effect to its halfway point. The term MIC denotes the smallest concentration in the dilution series that meets the test's criterion for growth inhibition.
